Measurements taken from patent US8937068B2, “Pyridopyrazine derivatives and their use” (Zentaris GmbH, priority 2005, dated 2015).
Values belong to the compound of their own block, whether it stands above or below them.

Experiments:
[1] = target: PI3Kalpha (Homo sapiens (Human), UniProt P42336); test: Cell-free kinase assay (ALPHA technology), PI3Kalpha; assay type: biochemical; settings: 100 μM ATP
Procedure: (§1) The inhibitory effect of the compounds according to the invention was tested on various serine/threonine, tyrosine and lipid kinases in enzymatic assays. Recombinant human kinases such as, for example, Erk2, PI3Kalpha, -beta, -gamma, -delta, p38alpha, p38gamma, Jnk1, Jnk2 and others were used in this case, partly as full-length kinases, partly as shortened fragments, but at least consisting of the functional kinase domains. The commercial kinase proteins (Proqinase, Upstate) were used as recombinant fusion proteins with GST (glutathion-S-transferase) or His-Tag. Depending on the type of substrate, the various kinase reactions were quantified by means of suitable ALPHA™ beads (Perkin-Elmer).
(§2) The substance testing is described in detail hereinafter for the Erk assay.
(§3) a) MAPK-ALPHAs (e.g. Erk2): the test substance, 0.625 ng Erk2 (#14-173, Upstate), 10 μM ATP and 15 nM biotinylated MBP (myelin basic protein) substrate were incubated on a 384-well Optiplate (Perkin-Elmer) in a volume of 15 μl for 1 h in 25 mM Tris, 10 mM MgCl2, 0.1% Tween-20, 100 μM NaVO4, 2 mM DTT at pH 7.5. The kinase reaction was then stopped by adding 10 μl of the ALPHA bead mixes (10 μg/ml, #6760617/Perkin-Elmer) pre-incubated with anti-phospho MBP antibody (320 pM, #05-429/Upstate) in 25 mM Tris, 200 mM NaCl, 110 nM EDTA and 0.3% BSA and left to stand overnight. b) PI3K-ALPHAs (e.g. PI3Kalpha): the test substance, 1 ng PI3Kalpha (#14-602, Upstate), 100 μM ATP and 20 μM PIP2 substrate (#P4508, Echelon) were incubated on a 384-well Optiplate (Perkin-Elmer) for 1 h in 50 mM Hepes, 50 mM NaCl, 5 mM MgCl2, 0.05% Chaps, 5 mM DTT at pH 7.4. The kinase reaction was then stopped by adding ALPHA bead mixes (10 μg/ml, #6760603/Perkin-Elmer) pre-incubated with 1 nM GST:Grp1 fusion protein (Upstate) and 15 nM biotinylated PIP3 (#C-39B6/Echelon) in 50 mM Hepes, 50 mM NaCl, 50 mM EDTA and 0.1% BSA and left to stand overnight.
(§4) The fluorescence was detected the following morning in a Fusion™^aα-system (Perkin-Elmer).
(§5) The %-inhibition values per substance concentration were calculated by means of the following formula from the raw data determined in the Fusion™ ? :
(§6) Eight determinations were made for each control and two for the substance samples. The 0% control either contains no ATP or no substrate, the 100% control (fully active kinase) contains no test substance. The IC50 values were determined using GraphPadPrism.

[2] = target: p38alpha (Homo sapiens (Human), UniProt Q16539); test: Cell-free kinase assay (ALPHA technology), p38alpha; assay type: biochemical; settings: 10 μM ATP
Sequence of p38alpha (Q16539 whole entry): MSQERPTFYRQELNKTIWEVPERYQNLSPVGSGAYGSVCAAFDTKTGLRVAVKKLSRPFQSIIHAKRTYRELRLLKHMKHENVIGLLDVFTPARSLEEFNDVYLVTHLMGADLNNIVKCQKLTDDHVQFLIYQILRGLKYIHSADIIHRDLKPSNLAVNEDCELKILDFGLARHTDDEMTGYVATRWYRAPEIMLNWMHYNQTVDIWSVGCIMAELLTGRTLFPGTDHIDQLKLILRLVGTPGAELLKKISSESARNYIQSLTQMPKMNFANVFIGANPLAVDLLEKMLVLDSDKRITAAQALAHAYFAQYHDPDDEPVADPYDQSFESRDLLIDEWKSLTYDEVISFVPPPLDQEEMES
Procedure: as §1, §2, §3, §4, §5, §6

[3] = tested on: Jnk1 + Jnk2; test: Cell-free kinase assay (ALPHA technology), Jnk1 + Jnk2; assay type: biochemical, human; settings: 10 μM ATP
Procedure: as §1, §2, §3, §4, §5, §6

[4] = target: Erk2 (Homo sapiens, UniProt P28482); test: Cell-free kinase assay (ALPHA technology), Erk2; assay type: biochemical; settings: 10 μM ATP
Sequence of Erk2 (P28482 2-360 limits assumed): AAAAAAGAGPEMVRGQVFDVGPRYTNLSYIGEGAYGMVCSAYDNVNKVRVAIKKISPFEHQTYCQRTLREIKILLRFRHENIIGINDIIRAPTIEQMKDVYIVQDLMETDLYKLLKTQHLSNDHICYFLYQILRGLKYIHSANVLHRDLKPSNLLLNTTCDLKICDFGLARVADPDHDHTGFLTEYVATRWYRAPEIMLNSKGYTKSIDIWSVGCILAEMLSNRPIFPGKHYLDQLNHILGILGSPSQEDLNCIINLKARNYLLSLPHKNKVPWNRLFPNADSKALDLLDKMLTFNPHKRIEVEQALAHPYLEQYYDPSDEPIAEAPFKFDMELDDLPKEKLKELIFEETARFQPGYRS
Procedure: The inhibitory effect of the compounds according to the invention was tested on various serine/threonine, tyrosine and lipid kinases in enzymatic assays. […] The commercial kinase proteins (Proqinase, Upstate) were used as recombinant fusion proteins with GST (glutathion-S-transferase) or His-Tag. Depending on the type of substrate, the various kinase reactions were quantified by means of suitable ALPHA™ beads (Perkin-Elmer). The substance testing is described in detail hereinafter for the Erk assay. […] a) MAPK-ALPHAs (e.g. […] The kinase reaction was then stopped by adding ALPHA bead mixes (10 μg/ml, #6760603/Perkin-Elmer) pre-incubated with 1 nM GST:Grp1 fusion protein (Upstate) and 15 nM biotinylated PIP3 (#C-39B6/Echelon) in 50 mM Hepes, 50 mM NaCl, 50 mM EDTA and 0.1% BSA and left to stand overnight. The fluorescence was detected the following morning in a Fusion™^aα-system (Perkin-Elmer). […] Eight determinations were made for each control and two for the substance samples. […] The IC50 values were determined using GraphPadPrism.

[5] = tested on: MDA-MB468; test: XTT assay, anti-proliferative effect, MDA-MB468; assay type: cell-based; settings: 45 h incubation
Procedure: (§7) The principle of this test is based on the intracellular reduction of the tetrazolium dye XTT (sodium 3′-[1-(phenylaminocarbonyl)-3,4-tetrazolium]-bis(4-methoxy-6-nitro)benzene sulfonic acid, Sigma) to a formazan dye by mitochondrial dehydrogenases. The dye is only formed by metabolically active cells and its photometrically measurable intensity is a quantitative indicator for the presence of living cells. The reduction of dye formation by incubation of the cells with substances serves as a parameter for the anti-proliferative effect.
(§8) The tumour cell lines (ATCC) were injected into 96-well microtitre plates in a defined cell number (5000 cells/well for BxPC3 and Hct116; 10000 cells/well for MDA MB468) and then incubated overnight in an incubator at 37° C., 5% CO2 and 95% air humidity. The test substances were prepared as stock solutions (10 mM) in DMSO. […] The cell plates were then incubated for 45 h in an incubator at 37° C., 5% CO2 and 95% air humidity.
(§9) For the detection reaction the substrate XTT was mixed with PMS (N-Methyl dibenzopyrazine methylsulfate, Sigma) and added to the cells so that a final concentration of 325 μg XTT/ml and 2.5 μg PMS/ml was obtained. It was then incubated for 3 h at 37° C., 95% air humidity. The formazan salt formed by the cellular dehydrogenases could then be quantified by adsorption at 490 nm.
(§10) The % inhibition value was evaluated by means of the following formula from the values for the optical densities measured in each case at 490 nm:
(§11) Eight determinations were made for each control and two for the substance samples. The 0% control contains no cells, the 100% control (proliferation control) contains no test substance. The EC50 values were determined using GraphPadPrism.

[6] = tested on: Hct116; test: XTT assay, anti-proliferative effect, Hct116; assay type: cell-based; settings: 45 h incubation
Procedure: as §7, §8, §9, §10, §11

Sequence of PI3Kalpha (P42336 whole entry, the tested form may be a part): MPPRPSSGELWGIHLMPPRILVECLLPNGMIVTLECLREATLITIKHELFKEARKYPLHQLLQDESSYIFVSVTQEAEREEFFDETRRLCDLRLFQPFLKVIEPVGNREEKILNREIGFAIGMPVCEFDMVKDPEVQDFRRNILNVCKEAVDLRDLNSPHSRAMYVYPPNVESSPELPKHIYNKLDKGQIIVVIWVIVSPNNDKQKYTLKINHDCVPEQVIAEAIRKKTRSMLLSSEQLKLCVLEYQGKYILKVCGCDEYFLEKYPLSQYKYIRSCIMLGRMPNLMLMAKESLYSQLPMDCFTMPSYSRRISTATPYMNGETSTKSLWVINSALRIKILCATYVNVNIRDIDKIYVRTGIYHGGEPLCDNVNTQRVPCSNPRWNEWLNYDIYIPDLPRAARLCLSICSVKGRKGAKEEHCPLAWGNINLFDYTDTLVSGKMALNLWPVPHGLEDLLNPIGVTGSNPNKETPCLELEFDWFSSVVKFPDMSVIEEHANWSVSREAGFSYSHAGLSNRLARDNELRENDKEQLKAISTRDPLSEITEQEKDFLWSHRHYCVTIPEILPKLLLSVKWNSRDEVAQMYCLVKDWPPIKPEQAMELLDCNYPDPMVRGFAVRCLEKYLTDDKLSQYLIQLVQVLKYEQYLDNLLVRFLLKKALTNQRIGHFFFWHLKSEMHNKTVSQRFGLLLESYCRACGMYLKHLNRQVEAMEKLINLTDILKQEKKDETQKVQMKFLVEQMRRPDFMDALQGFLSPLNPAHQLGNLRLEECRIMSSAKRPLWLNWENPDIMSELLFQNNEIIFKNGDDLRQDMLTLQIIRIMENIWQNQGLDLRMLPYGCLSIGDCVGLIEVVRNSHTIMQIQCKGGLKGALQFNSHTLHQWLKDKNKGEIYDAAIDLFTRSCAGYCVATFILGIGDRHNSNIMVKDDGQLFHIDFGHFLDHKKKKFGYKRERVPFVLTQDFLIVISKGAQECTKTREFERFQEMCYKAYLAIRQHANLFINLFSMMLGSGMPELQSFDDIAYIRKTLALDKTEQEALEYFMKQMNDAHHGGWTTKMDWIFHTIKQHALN
Sequence of PI3Kalpha (P27986 whole entry partner, the tested form may be a part): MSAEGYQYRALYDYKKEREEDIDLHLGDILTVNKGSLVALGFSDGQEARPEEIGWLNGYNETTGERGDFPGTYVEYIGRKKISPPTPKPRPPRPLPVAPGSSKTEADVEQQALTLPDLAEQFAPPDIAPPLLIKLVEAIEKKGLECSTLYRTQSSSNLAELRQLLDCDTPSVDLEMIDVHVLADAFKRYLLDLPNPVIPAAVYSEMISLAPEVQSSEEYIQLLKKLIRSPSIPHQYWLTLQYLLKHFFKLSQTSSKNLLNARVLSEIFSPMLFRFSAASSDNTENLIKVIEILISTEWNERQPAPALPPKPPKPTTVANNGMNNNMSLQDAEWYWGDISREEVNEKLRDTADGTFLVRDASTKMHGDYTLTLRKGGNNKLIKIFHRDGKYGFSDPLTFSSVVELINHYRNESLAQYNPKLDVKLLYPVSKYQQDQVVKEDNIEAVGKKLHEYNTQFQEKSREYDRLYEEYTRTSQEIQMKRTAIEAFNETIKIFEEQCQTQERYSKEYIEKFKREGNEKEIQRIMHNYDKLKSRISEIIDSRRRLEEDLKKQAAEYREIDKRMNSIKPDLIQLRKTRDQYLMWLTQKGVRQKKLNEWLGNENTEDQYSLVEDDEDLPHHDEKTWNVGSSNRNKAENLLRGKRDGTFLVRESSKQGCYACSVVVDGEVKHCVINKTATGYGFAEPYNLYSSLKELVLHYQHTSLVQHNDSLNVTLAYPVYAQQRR

IC50 [1]: 0.9 µM
IC50 [2]: > 31.6 µM
IC50 [3]: > 31.6 µM
melting point: 239 to 240 °C (dec.)
SMILES: C=CCNC(=S)Nc1ccc2ncc(-c3ccccc3)nc2n1 [Compound 1, 1-Allyl-3-(3-phenyl-pyrido[2,3-b]pyrazin-6-yl)-thiourea]

melting point: 244 °C (dec.)
SMILES: C=CCNC(=S)Nc1ccc2ncc(-c3ccc([N+](=O)[O-])cc3)nc2n1 [Compound 24, 1-allyl-3-[3-(4-nitro-phenyl)-pyrido[2,3-b]pyrazin-6-yl]-thiourea]

melting point: 218 to 220 °C (dec.)
SMILES: C=CCNC(=S)Nc1ccc2ncc(-c3ccc4c(c3)OCO4)nc2n1 [Compound 28, 1-allyl-3-(3-benzo[1,3]dioxol-5-yl-pyrido[2,3-b]pyrazin-6-yl)-thiourea]

melting point: 240 °C (dec.)
SMILES: C/C=C/NC(=S)Nc1ccc2nc(-c3ccc(O)cc3)c(-c3ccc(O)cc3)nc2n1 [Compound 33, 1-[2,3-bis-(4-hydroxy-phenyl)-pyrido[2,3-b]pyrazin-6-yl]-3-((E)-propenyl)-thiourea]

melting point: 260 °C (dec.)
SMILES: C=CCNC(=S)Nc1ccc2nc(-c3ccc(O)cc3)cnc2n1 [Compound 34, 1-allyl-3-[2-(4-hydroxy-phenyl)-pyrido[2,3-b]pyrazin-6-yl]-thiourea]

melting point: 250 °C (dec.)
SMILES: O=C(NCCc1ccccc1)Nc1ccc2ncc(-c3ccccc3)nc2n1 [Compound 35, 1-Phenethyl-3-(3-phenyl-pyrido[2,3-b]pyrazin-6-yl)-urea]

melting point: 246 to 248 °C
SMILES: CCNC(=O)Nc1ccc2nc(C)c(C)nc2n1 [Compound 37, 1-(2,3-Dimethyl-pyrido[2,3-b]pyrazin-6-yl)-3-ethyl-urea]

More lines, now with the values behind:

SMILES: CC(C)NC(=S)Nc1ccc2ncc(-c3ccccc3)nc2n1 [Compound 19, 1-isopropyl-3-(3-phenyl-pyrido[2,3-b]pyrazin-6-yl)-thiourea]
melting point: 229 to 230 °C

SMILES: S=C(NCc1ccco1)Nc1ccc2ncc(-c3ccccc3)nc2n1 [Compound 20, 1-furan-2-ylmethyl-3-(3-phenyl-pyrido[2,3-b]pyrazin-6-yl)-thiourea]
melting point: 250 °C (dec.)

SMILES: O=C(Nc1ccc2ncc(-c3ccccc3)nc2n1)NC1CC1 [Compound 21, 1-cyclopropyl-3-(3-phenyl-pyrido[2,3-b]pyrazin-6-yl)-urea]
melting point: 158 to 160 °C

SMILES: CNC(=S)Nc1ccc2ncc(-c3ccc([N+](=O)[O-])cc3)nc2n1 [Compound 22, 1-methyl-3-[3-(4-nitro-phenyl)-pyrido[2,3-b]pyrazin-6-yl]-thiourea]
melting point: 270 °C

SMILES: C=CCNC(=O)Nc1ccc2ncc(-c3ccc(O)cc3)nc2n1 [Compound 25, 1-allyl-3-[3-(4-hydroxy-phenyl)-pyrido[2,3-b]pyrazin-6-yl]-urea]
IC50 [4]: 0.076 µM
IC50 [1]: 1.5 µM
IC50 [2]: > 100 µM
IC50 [3]: > 31.6 µM
melting point: 240 °C (dec.)

SMILES: C=CCNC(=S)Nc1ccc2ncc(-c3ccc(C(=O)OCC)cc3)nc2n1 [Compound 26, 4-[6-(3-allyl-thioureido)-pyrido[2,3-b]pyrazin-3-yl]-benzoic acid ethyl ester]
melting point: 223 to 224 °C

SMILES: C=CCNC(=S)Nc1ccc2ncc(-c3cccc(O)c3)nc2n1 [Compound 27, 1-allyl-3-[3-(3-hydroxy-phenyl)-pyrido[2,3-b]pyrazin-6-yl]-thiourea]
melting point: 205 °C (dec.)

SMILES: C=CCNC(=S)Nc1ccc2nc(-c3ccc(O)cc3)c(-c3ccc(O)cc3)nc2n1 [Compound 32, 1-allyl-3-[2,3-bis-(4-hydroxy-phenyl)-pyrido[2,3-b]pyrazin-6-yl]-thiourea]
melting point: 270 °C (dec.)

SMILES: CCNC(=O)Nc1ccc2nc(-c3ccccn3)c(-c3ccccn3)nc2n1 [Compound 36, 1-(2,3-Di-pyridin-2-yl-pyrido[2,3-b]pyrazin-6-yl)-3-ethyl-urea]
melting point: 236 to 237 °C

SMILES: C=CCNC(=S)Nc1cnc2nc(-c3ccc([N+](=O)[O-])cc3)cnc2c1 [Compound 137, 1-Allyl-3-[3-(4-nitro-phenyl)-pyrido[2,3-b]pyrazin-7-yl]-thiourea]
melting point: 250 °C (dec.)

SMILES: CCNC(=O)Nc1ccc2ncc(-c3ccc(OP(=O)(O)O)c(OC)c3)nc2n1 [Compound 169, Phosphoric acid-mono-{4-[6-(3-ethyl-ureido)-pyrido-[2,3-b]pyrazin-3-yl]-2-methoxy-phenyl}-ester]
IC50 [4]: 2.7 µM
IC50 [1]: 3.7 µM
IC50 [2]: > 100 µM
IC50 [3]: 9.5 µM
EC50 ([5]; Homo sapiens, MDA-MB-468): 5.7 µM
EC50 ([6]; Homo sapiens, HCT-116): 2.8 µM

SMILES: CCNC(=O)Nc1ccc2ncc(-c3cc(Cl)c(O)c(OC)c3)nc2n1 [Compound 175]
IC50 [4]: 0.191 µM
IC50 [1]: 0.458 µM
IC50 [2]: > 100 µM
IC50 [3]: 2.5 µM
EC50 [5]: > 50 µM
EC50 [6]: 4.4 µM

SMILES: COc1cc(-c2cnc3ccc(NC(=O)NCCCCN4CCOCC4)nc3n2)ccc1O [Compound 176, 1-[3-(4-Hydroxy-3-methoxy-phenyl)-pyrido[2,3-b]pyrazin-6-yl]-3-(4-morpholin-4-yl-butyl)-urea]
EC50 ([5]; Homo sapiens, MDA-MB-468): 17 µM
EC50 ([6]; Homo sapiens, HCT-116): 11.8 µM

SMILES: CCNC(=O)Nc1ccc2ncc(Nc3cc(C)cc(C)c3)nc2n1 [Compound 191, 1-[3-(3,5-Dimethyl-phenylamino)-pyrido[2,3-b]pyrazin-6-yl]-3-ethyl-urea]
EC50 ([5]; Homo sapiens, MDA-MB-468): 8.5 µM
EC50 ([6]; Homo sapiens, HCT-116): 5.5 µM

SMILES: CCNC(=O)Nc1ccc2ncc(-c3ccc(O)c(OC)c3)nc2n1 [Compound 193]
IC50 [4]: 0.212 µM
IC50 [1]: 2.2 µM
IC50 [2]: > 100 µM
IC50 [3]: 1.5 µM
EC50 [5]: 4.4 µM
EC50 [6]: 2.1 µM
